What was measured:
[1] = system: Rhizoctonia solani; test: Fungicidal vs fungistatic potential (regrowth of mycelial plugs on fresh PDA, 7 days); assay type: cell-based, Rhizoctonia solani AG-4, isolate Rs 23A
Procedure: The fungicidal and fungistatic potential of the PEs were determined by the method described by Garber and Houstan (Garber R. H., and B. R. Houston, Phytopathology, 49: 449-450 (1959)). In brief, three 5 mm diameter plugs were taken from the peripheral mycelial growth from each plate and placed in a fresh PDA plate. Following incubation at room temperature for 7 days, observations were recorded for new mycelial growth (fungistatic) or no mycelial growth (fungicidal). As control, peripheral mycelial plugs from soybean oil amended PDA plates were checked for fresh mycelial growth in fresh PDA plates.

[2] = system: Rhizoctonia solani; test: Filter disk fumigation method, mycelial growth inhibition on PDA; assay type: cell-based, Rhizoctonia solani AG-4, isolate Rs 23A; conditions: for Fumig1 % inhibition: fumigation experiment 1; for Fumig2 % inhibition: fumigation experiment 2
Procedure: (§1) Fungal isolate and preparation of inoculum: Rhizoctonia solani AG-4, isolate Rs 23A is a highly virulent pathogenic isolate which infects many vegetables, ornamentals and turfgrasses (Lewis, J. A., and G. C. Papavizas, Soil Biology and Biochemistry, 9:195-201 (1987)). The fungus was grown in potato dextrose agar (PDA) plates and fungal plugs from the freshly growing mycelium were mixed with moist sterilized cracked wheat in a 2 L flask for 15 days in dark at 22° C. (Lakshman, D. K., et al., Proceedings of the National Academy of Science, USA, 95: 6425-6429 (1998)). The infested wheat was air dried in a sterile hood for 3 days, blended in a homogenizer and sieved through a mesh and stored at 2° C. before soil inoculation. A dose response of the inocula was carried out by thoroughly mixing using 0.25, 0.5, 0.75, 1.0, 1.25 and 1.50 g inoculums per Kg dry weight potting soil plus sterile water to maintain 25-30% moisture and incubating at room temperature for two weeks before sowing cucumber (cv muncher) seeds with the infested soil. The percent germination and post-emergence damping off of cucumber seedlings were recorded. The lowest inoculums dose that induced 100% postemergence damping off was estimated to be 1 to 1.25 g/Kg soil for inocula prepared over the span of the experiments. For soil fumigation with plant extracts (PEs), each time the minimum inoculum dose giving rise to 100% damping off was used.
In the second protocol, the chemical was kept not in direct contact with the fungus and we hypothesized that the plant extract will most likely influence the growth of the pathogen by fumigation action. In this approach, three sterile 15 mm filter paper (Whatman International Ltd, Maidstone, UK) disks were placed on the edge of each of three plates on the PDA. Each disk was impregnated in the center with various amounts (5-50 ul/disk) of the test solution/suspension. For negative control, only soybean oil was placed in the filter disk. […] The average radial growth was calculated and the experiment was repeated one more time. Percent growth inhibition was calculated as reported for poison bed assay.

[3] = system: Rhizoctonia solani; test: Greenhouse suppression of damping off of cucumber seedlings in R. solani infested soil amended with plant extract; assay type: in vivo, Rhizoctonia solani AG-4, isolate Rs 23A; conditions: for % Disease suppression (+ PE + R. solani): cucumber damping off, soil amendment at 0.3% (v/w), four weeks after sowing
[4] = system: Rhizoctonia solani; test: Poison food technique (contact action), mycelial growth inhibition in PDA; assay type: cell-based, Rhizoctonia solani AG-4, isolate Rs 23A; conditions: for PoisonB1 % inhibition: poison bed experiment 1; for PoisonB2 % inhibition: poison bed experiment 2
Procedure: as §1
In vitro bioassays: Two in vitro bioassay methods were used to investigate the mycelial growth inhibitory potentials of PEs. In the poison food technique, test chemical/plant extract was mixed at concentrations of 15, 30, 45, 60, 75, and 150 μl per 20 ml autoclaved PDA at 50° C., poured on three sterile disposable plastic plates (100×15 mm, Fisherbrand) at 20 ml/plate and cooled to room temperature to solidify (Dhingra, O.D., and J. B. Sinclair, 1995, Basic Plant Pathology Methods, 2nd Edition, Lewis Publishers, Boca Raton and London). […] Each plate was seeded in the center with a 5 mm diameter agar disk of the freshly grown Rhizoctonia pathogen, mycelial side facing the medium, and sealed with stretched Parafilm® M (Fisher Scientific). The plates were incubated in the dark at room temperature and when the pathogen reached to the edge of the plates in the control treatment (soybean oil), radial measurement of fungal growth in plates treated with PEs were recorded by taking three measurements from each plate. The experiment was repeated one more time. The percent mycelial growth inhibition (MGI) due to PE was calculated using the following formula: […] where dc=Avg. radial growth in mm of pathogen in control plate; dt=avg. radial growth in mm of pathogen in treated plate.

[5] = system: cucumber seeds; test: Greenhouse assay of seed germination and phytotoxicity, soil treated with plant extract alone; conditions: cucumber
Procedure: Soil treatment: For each treatment, 300 g of dry greenhouse soli (Pro-mix, Premier Horticulture LTD, Red Hill, Pa.) was thoroughly mixed with Rhizoctonia inoculum and incubated for 15 days as described above. […] The infested soil treated with only the carrier solution served as an untreated control. Following the treatment, the soil was thoroughly stirred to mix the contents and incubated in a double polythene bag closed tightly in the dark at room temperature for four days for fumigation to occur. Following the incubation, the bag was opened to allow as much PE to dissipate as possible. This was done by sprinkling the surface soil with sterile water every other day, and stirring the soil once every day for seven days. For assay of effect on seed germination and phytotoxicity of the plant extracts, soil was treated with plant extract formulations alone.
Greenhouse studies: Treated soil from each treatment was distributed to 4-inch plastic pots into which 12 seeds of cucumbers (95-100% germination) were sown and lightly watered to keep soil moist. The treatments were color coded and pots were randomized across treatment. All plants were kept in a greenhouse between 20° C. (night) to 26° C. (day) with 14 h of light. There were three pots per treatment in each experiment, and the experiment was repeated three times. As positive control, a broad spectrum popular soil fungicide Banrot® 40 WP (The Scotts Company, Ohio) was used following manufacturer's recommendation to control the disease. Total number of seedlings without any sign of damping off in each pot was recorded and percentage of disease suppression were calculated four weeks after sowing cucumber seeds.

[6] = in vivo, 0.3 % of PE in soil (3000 ppm)

| SMILES | Effect (fumigation) ([1]; amount oil 15 μL/20 mL plate) | Effect (fumigation) ([1]; amount oil 30 μL/20 mL plate) | Effect (fumigation) ([1]; amount oil 45 μL/20 mL plate) | Effect (fumigation) ([1]; amount oil 60 μL/20 mL plate) | Effect (fumigation) ([1]; amount oil 75 μL/20 mL plate) | Effect (fumigation) ([1]; amount oil 150 μL/20 mL plate) | Fumig1 % inhibition ([2]; amount oil 15 μL/20 mL plate) | Fumig2 % inhibition ([2]; amount oil 15 μL/20 mL plate) | Fumig2 % inhibition ([2]; amount oil 30 μL/20 mL plate) | Fumig2 % inhibition ([2]; amount oil 45 μL/20 mL plate) | Fumig2 % inhibition ([2]; amount oil 60 μL/20 mL plate) | Fumig2 % inhibition ([2]; amount oil 75 μL/20 mL plate) | Fumig2 % inhibition ([2]; amount oil 150 μL/20 mL plate) | % Disease suppression (+ PE + R. solani) [3] | PoisonB1 % inhibition ([4]; amount oil 15 μL/20 mL plate) | PoisonB2 % inhibition ([4]; amount oil 15 μL/20 mL plate) | PoisonB1 % inhibition ([4]; amount oil 30 μL/20 mL plate) | PoisonB2 % inhibition ([4]; amount oil 30 μL/20 mL plate) | PoisonB1 % inhibition ([4]; amount oil 45 μL/20 mL plate) | PoisonB2 % inhibition ([4]; amount oil 45 μL/20 mL plate) | further results |
| --- | --- | --- | --- | --- | --- | --- | --- | --- | --- | --- | --- | --- | --- | --- | --- | --- | --- | --- | --- | --- | --- |
| CC=Cc1ccc(OC)cc1 [Anethole] | S | S | S | S | S | S | 99% | 90% | 85% | 86% | 89% | 97% | 102% | 58.33% | 100% | 100% | 100% | 100% | 100% | 100% | Effect (poison bed, contact action) ([1]; amount oil 15 μL/20 mL plate): S; Effect (poison bed, contact action) ([1]; amount oil 30 μL/20 mL plate): S; Fungicidal vs fungistatic nature at higher concentrations ([1]; in vitro, higher concentrations): fungicidal; Inhibition of R. solani growth by fumigation action, in words ([2]; in vitro, filter disk): potent inhibitors; Avg. seed Germination (+ PE + R. solani) ([3]; cucumber, 12 seeds sown per pot, infested soil amended with 0.3% PE): 7.00; PoisonB1 % inhibition ([4]; amount oil 60 μL/20 mL plate): 100%; PoisonB2 % inhibition ([4]; amount oil 60 μL/20 mL plate): 100%; PoisonB1 % inhibition ([4]; amount oil 75 μL/20 mL plate): 100%; PoisonB2 % inhibition ([4]; amount oil 75 μL/20 mL plate): 100%; PoisonB1 % inhibition ([4]; amount oil 150 μL/20 mL plate): 100%; PoisonB2 % inhibition ([4]; amount oil 150 μL/20 mL plate): 100%; Inhibition of R. solani growth by contact (poison bed assay), in words ([4]; in vitro, PDA): potent inhibitors; % Seed germination (+ PE only) [5, 6]: 75.00%; Avg. seed germination (+ PE only) [5, 6]: 9.00 |
| CC(C)=CCC/C(C)=C/CO [Geraniol] | S | S | S | S | S | S | 51% | 15% | 34% | 31% | 54% | 67% | 61% | 77.75% | 100% | 100% | 100% | 100% | 100% | 100% | Fumig1 % inhibition ([2]; amount oil 30 μL/20 mL plate): 56%; Fumig1 % inhibition ([2]; amount oil 45 μL/20 mL plate): 62%; Fumig1 % inhibition ([2]; amount oil 60 μL/20 mL plate): 66%; Fumig1 % inhibition ([2]; amount oil 75 μL/20 mL plate): 73%; Fumig1 % inhibition ([2]; amount oil 150 μL/20 mL plate): 77%; PoisonB1 % inhibition ([4]; amount oil 60 μL/20 mL plate): 100%; PoisonB2 % inhibition ([4]; amount oil 60 μL/20 mL plate): 100%; PoisonB1 % inhibition ([4]; amount oil 75 μL/20 mL plate): 100%; PoisonB2 % inhibition ([4]; amount oil 75 μL/20 mL plate): 100%; PoisonB1 % inhibition ([4]; amount oil 150 μL/20 mL plate): 100%; PoisonB2 % inhibition ([4]; amount oil 150 μL/20 mL plate): 100%; Avg. seed germination (+ PE only) ([5]; 12 seeds sown per pot, soil amended with 0.3% PE, no pathogen): 11.33; % Seed germination (+ PE only) ([5]; soil amended with 0.3% PE, no pathogen): 94.41% |

From patent US8871280B1, “Compositions and methods for treating fungal activity in plants or soil” (The United States of America, as represented by the …, priority 2011, dated 2014)
